We go through two compounds from patent US20180296537A1, “METHODS AND COMPOSITIONS FOR DIAGNOSING, TREATING, AND MONITORING TREATMENT OF SHANK3 DEFICIENCY ASSOCIATED DISORDERS” (Novartis AG, priority 2015, published 2018).

SMILES strings stand for the structures.

One experiment relates to CA1 pyramidal neurons. As to the kind of experiment: Dendritic spine density in hippocampal organotypic slice cultures. The experiment is classed as cell-based, mouse. The procedure: Wilde type (C57B1/6) mice were housed in a temperature-controlled room and maintained on a 12 hr light/dark cycle. Food and water were available ad libitum and experiments were carried out in accordance with the local authorization guidelines for the care and use of laboratory animals. Slice cultures were established according to the procedure described by Stoppini and colleagues (Galimberti et al., 2006; Stoppini et al., 1991). […] For organotypic slice cultures, brains of P6-P9 transgenic mice were dissected in cold MEM (GIBCO) medium, and hippocampal coronal sections of 400 μm were obtained with a tissue chopper (McIlwain). Slices were selected, placed on Millicell (Millipore, PICM03050) and cultured in 6-well dishes at 35° C. and 5% CO2 in the presence of 1 ml of medium. The entire slice isolation procedure took about 30 min. The culture medium was exchanged every third day. Treatments were performed in fresh culture medium for the indicated time periods.
Brain slices were transfected with plasmids encoding shCont, and shShank3 using helios gene gun system (Bio-Rad Laboratories, #165-2431) as previously described (Proenca et al., 2013). Subsequently, slices were fixed, stained, mounted, and analyzed following the protocols described below in the immunohistochemistry and microscopy paragraphs.
Slices were fixed for 10 minutes in 4% PFA, washed in PBS and blocked for 4 hr at room temperature in 0.3% Triton X-100 20% Horse Serum/PBS (blocking solution). GFP primary antibody was incubated for 24 hr at 4° C. in the blocking solution. Afterwards, slices were washed in PBS, incubated for 2 hr in 0.3% Triton X-100/PBS with Alexa Fluor® 488 Donkey anti-chicken secondary antibody (Life technologies). Finally, slices were washed in PBS, incubated 10 minutes with DAPI (Life technologies) and mounted on glass slides using ProLong mountant (Life technologies).
High resolution images were acquired on an upright Zeiss LSM700 confocal microscope, using a Plan-Neofluar 100×/1.3 oil immersion objective. For the analysis of dendritic spine density, confocal 3D stacks were acquired in CA1 region for each experiment. To quantify spine density, a stretch of approximately 30 μm was selected on secondary dendrites originating at the branch point from the primary dendrite. Only secondary dendrites were considered to reduce variability. Dendritic length was measured using the ImageJ plugin, Simple Neurite tracer, and spine density manually counted using the Cell Counter plugin.
The above findings implicate CLK2 overexpression as a specific anomaly that is causative for attenuated Akt activity in neurons deficient for Shank3. Consequently, inhibiting CLK2 activity or directly activating Akt would restore neuronal impairments associated with Shank3 loss of function. First, a small-molecule Akt-activator, SC79, was tested for its ability to restore Akt phosphorylation (FIG. 5A). SC79 binds directly to Akt to facilitate an ‘open’ conformation of the protein that is accessible to upstream activating kinases (eg. PDK1). This obviates the need for PtdIns(3,4,5)P3 (PIP3) production and recruitment of Akt to the plasma membrane (Rodgers, Cell Metab. 11, 23-34, 2010). […] Decreased principal neuron dendritic spine density has frequently been observed in Shank3 loss of function models (Durand et al., 2007, Nature Genetics 39: 25-27; Peca et al., 2011, Nature 472: 437-442; Verpelli et al., 2011, The Journal of Biological Chemistry 286: 34839-34850). Knock-down of Shank3 in hippocampal organotypic slice cultures, via biolistic transfection of shRNA vectors, faithfully recapitulated this phenotype in CA1 pyramidal neurons, whereby a two-fold reduction in apical dendrite spine density resulted (FIG. 6A). […]

In experiment [1] the test system is IGF-signaling impaired zebrafish model. Particulars: cited from earlier work.
A further experiment has as its system Akt. As to the kind of experiment: In vivo Akt phosphorylation in Shank3^ΔC/ΔC mice. Also noted: species or system mouse. The conditions noted are these: 30 mg/kg TG003 intraperitoneal. The text has this:
To determine whether the above findings extend to autism spectrum disorder (ASD)-like behaviors, a Shank3-deficient mouse model was generated by ablation of Shank3 exon 21 (FIGS. 8A and 8B) as previously described (Kouser et al., Journal of Neuroscience 33, 18448-18468, 2013; Duffney et al., Cell reports 11, 1400-1413, 2015). To generate Shank3 exon 21-deleted mice, the exon 21 genomic region of Shank3 (2464 bp in size) was replaced by homologous recombination with a loxP-TK_Neo-loxP cassette. The Neo cassette was flanked by a 3 kb 5′ homology arm and a 1.6 kb 3′ homology arm. Linearized targeting vector DNA was electroporated into C57BL6/J ES cells, and G418 resistant ES clones were first screened by nested PCR, and then subjected to Southern blot analysis. For Southern analysis, genomic DNA was digested with restriction enzyme(s), and hybridized with probes positioned outside the 5′ and 3′ homologous regions. Targeted ES clones were used for blastocyst injection, and chimeric males were mated with transgenic Cre-expressing C57B1/6 mice females to remove the neomycin resistance cassette. Animals without the neo cassette were used as F1 mice to establish the Shank3 exon 21-deleted (Shank3^ΔC/ΔC) colony.
The major Shank3 isoforms were absent in the homozygous mice (Shank3^ΔC/ΔC), while faster-migrating, truncated fragments were detected (FIG. 8C).

The next experiment deals with Shank3^ΔC/ΔC mice. In words: Marble burying (avoidance behavior). The experiment is classed as in vivo, mouse. The conditions noted are these: 30 minutes, 20 marbles; TG003 treatment. As for the experimental part:
To assess avoidance behavior by marble burying, 20 black marbles were evenly distributed in rows in a novel home cage on top of 5 cm of fresh bedding and mice were left undisturbed for 30 minutes in the cage. The number of marbles to at least ⅔ depth were then recorded.

As for `CCOC(=O)C1=C(N)Oc2ccc(Cl)cc2C1C(C#N)C(=O)OCC` (stereo not shown) [SC79], the spine density result is on record as “rescued the spine density impairment in Shank3 knock down neurons” in the experiment with CA1 pyramidal neurons (Shank3 knock down neurons, 4 μg/ml SC79, 24 hr, DIV 14) and “without significantly affecting controls” with CA1 pyramidal neurons (control neurons, 4 μg/ml SC79, 24 hr, DIV 14). Further, the habituation learning result in experiment [1] was “restore habituation learning”.
On to `CCN1/C(=C/C(C)=O)Sc2ccc(OC)cc21` [TG003, (Z)-1-(3-ethyl-5-methoxy-2,3-dihydrobenzothiazol-2-ylidene)propan-2-one], for which, in the experiment on Akt, the “Akt phosphorylation in vivo” value is on record as “increases Akt phosphorylation”. Further, in the experiment with CA1 pyramidal neurons (Shank3 knock down neurons, TG003 24 hours), the spine density result was “increased spine density in Shank3 knock down neurons to control levels”. Also, in the experiment with CA1 pyramidal neurons (knockdown of Shank3 with additional shRNAs, 24 h pre-treatment with TG003, fixed DIV 14), the dendritic spine density result was “corrected”. For the same compound, the “avoidance behavior, marble burying” value with Shank3^ΔC/ΔC mice was “refractory to treatment with TG003”.
